# Test results: patent publication US5451564A, “Antimicrobial composition comprising N-hydroxy heterocyclic thiones” (priority 1991, dated 1995)
# Where two headings read alike, the source gives them in different places.
# Assays:
# [1] = aqueous solubility of zinc complex after milling in pyrophosphate solution and dilution with distilled water until clear; type: physicochemical
# Description: The concentration of the 2:1 zinc complex was then determined.
# The zinc complex was milled in a 0.1 molar solution of tetrasodium pyrophosphate as described in Example 1. This was then diluted with distilled water until a clear solution was obtained.
# These solutions were prepared by the method described in Example 1.
# [2] = system: mixed suspension of Pseudomonas aeruginosa, Proteus rettgeri, Serratia marcescans, Aeromonas hydrophila, Alcaligenes species, Pseudomonas cepacia and …; experiment: repeated bacterial challenge test in acrylic (emulsion) paint; type: cell-based, mixed bacteria; set-up: key: 5: Confluent growth; 4: Heavy growth; 3: Moderate growth; 2: Slight growth; 1: Trace growth; 0: No growth
# Description: (§1) An inoculum was prepared containing Pseudomonas aeruginosa, Proteus rettgeri, Serratia marcescans, Aeromonas hydrophila, Alcaligenes species, Pseudomonas cepacia and Pseudomonas putida by culturing the individual organisms onto nutrient agar and incubating for 24 hours at 30° C. Each of the individual suspensions of the test organisms were then prepared at a concentration of 10E8 cfu/ml in one quarter strength Ringer's solution by means of a Thoma counting chamber. A mixed suspension was obtained by mixing equal volumes of the individual suspensions. This procedure was repeated for each of the three challenges to which the test substrates were subjected, and the concentration of micro-organisms in each substrate after challenge was 2×10E6 cfu/ml.
# (§2) Aliquots (50 parts) of a standard laboratory acrylic latex and an emulsion paint were prepared containing 0, 10, 25, 50, 100, 125, 250, 500 and 750 ppm of the 1:2 zinc complex of 3-hydroxy-4-methylthiazol-2(3H)thione which was prepared as a 1% dispersion in an aqueous solution of 0.1M tetrasodium pyrophosphate. A 1% dispersion of the 1:2 zinc complex of 1-hydroxy-2-pyridinethiol in an aqueous solution of 0.1M tetrasodiumpyrophosphate was evaluated in the same manner.
# (§3) The test substrates were then stored at 40° C. for seven days and were then challenged on three separate occasions with 1 part by volume of the mixed suspension of micro-organisms. All the substrates were then incubated at 30° C. and examined for the presence of viable bacteria after 1, 3 and 7 days after each challenge (Phase 1).
# (§4) Those samples which had achieved sterility were then stored for a further 8 weeks at 30° C., and were then rechallenged and the number of viable organisms again determined (Phase 2).
# (§5) Viable bacteria were detected by streaking small aliquots onto nutrient agar followed by incubation at 30° C. for 2 days. The presence or absence of colonies was determined visually. […]
# [3] = system: mixed suspension of Pseudomonas aeruginosa, Proteus rettgeri, Serratia marcescans, Aeromonas hydrophila, Alcaligenes species, Pseudomonas cepacia and …; type: cell-based, mixed bacteria; set-up: key: 5: Confluent growth; 4: Heavy growth; 3: Moderate growth; 2: Slight growth; 1: Trace growth; 0: No growth
# Description: as §1, §2, §3, §4, §5
smiles,measurement,setting,value
"Cc1csc(=S)n1[O-].Cc1csc(=S)n1[O-].[Zn+2] [Compound A, 1:2 zinc complex of 3-hydroxy-4-methylthiazol-2(3H)thione]",aqueous solubility,"[1]; finely milled sample, no pyrophosphate",about 5 ppm
same,solubility in the presence of the pyrophosphate anion,"[1]; milled in 0.1 molar tetrasodium pyrophosphate, diluted with distilled water","about 10,000 ppm"
same,growth rating,"[2]; paint 10 ppm, Phase 1 Chall 1, day 1",5
same,growth rating,"[2]; paint 10 ppm, Phase 1 Chall 1, day 3",5
same,growth rating,"[2]; paint 10 ppm, Phase 1 Chall 1, day 7",0
same,growth rating,"[2]; paint 10 ppm, Phase 1 Chall 2, day 1",5
same,growth rating,"[2]; paint 10 ppm, Phase 1 Chall 2, day 3",5
same,growth rating,"[2]; paint 10 ppm, Phase 1 Chall 2, day 7",5
same,growth rating,"[2]; paint 10 ppm, Phase 1 Chall 3, day 1",5
same,growth rating,"[2]; paint 10 ppm, Phase 1 Chall 3, day 3",5
same,growth rating,"[2]; paint 10 ppm, Phase 1 Chall 3, day 7",5
same,growth rating,"[2]; paint 25 ppm, Phase 1 Chall 1, day 1",5
same,growth rating,"[2]; paint 25 ppm, Phase 1 Chall 1, day 3",3
same,growth rating,"[2]; paint 25 ppm, Phase 1 Chall 1, day 7",0
same,growth rating,"[2]; paint 25 ppm, Phase 1 Chall 2, day 1",5
same,growth rating,"[2]; paint 25 ppm, Phase 1 Chall 2, day 3",4
same,growth rating,"[2]; paint 25 ppm, Phase 1 Chall 2, day 7",0
same,growth rating,"[2]; paint 25 ppm, Phase 1 Chall 3, day 1",5
same,growth rating,"[2]; paint 25 ppm, Phase 1 Chall 3, day 3",5
same,growth rating,"[2]; paint 25 ppm, Phase 1 Chall 3, day 7",4
same,growth rating,"[2]; paint 50 ppm, Phase 1 Chall 1, day 1",5
same,growth rating,"[2]; paint 50 ppm, Phase 1 Chall 1, day 3",3
same,growth rating,"[2]; paint 50 ppm, Phase 1 Chall 1, day 7",0
same,growth rating,"[2]; paint 50 ppm, Phase 1 Chall 2, day 1",5
same,growth rating,"[2]; paint 50 ppm, Phase 1 Chall 2, day 3",4
same,growth rating,"[2]; paint 50 ppm, Phase 1 Chall 2, day 7",0
same,growth rating,"[2]; paint 50 ppm, Phase 1 Chall 3, day 1",5
same,growth rating,"[2]; paint 50 ppm, Phase 1 Chall 3, day 3",4
same,growth rating,"[2]; paint 50 ppm, Phase 1 Chall 3, day 7",0
same,growth rating,"[2]; paint 100 ppm, Phase 1 Chall 1, day 1",5
same,growth rating,"[3]; latex 10 ppm, Phase 1 Chall 1, day 1",5
same,growth rating,"[3]; latex 10 ppm, Phase 1 Chall 1, day 3",5
same,growth rating,"[3]; latex 10 ppm, Phase 1 Chall 1, day 7",4
same,growth rating,"[3]; latex 10 ppm, Phase 1 Chall 2, day 1",5
same,growth rating,"[3]; latex 10 ppm, Phase 1 Chall 2, day 3",5
same,growth rating,"[3]; latex 10 ppm, Phase 1 Chall 2, day 7",5
same,growth rating,"[3]; latex 10 ppm, Phase 1 Chall 3, day 1",5
same,growth rating,"[3]; latex 10 ppm, Phase 1 Chall 3, day 3",5
same,growth rating,"[3]; latex 10 ppm, Phase 1 Chall 3, day 7",5
same,growth rating,"[3]; latex 25 ppm, Phase 1 Chall 1, day 1",5
same,growth rating,"[3]; latex 25 ppm, Phase 1 Chall 1, day 3",5
same,growth rating,"[3]; latex 25 ppm, Phase 1 Chall 1, day 7",4
same,growth rating,"[3]; latex 25 ppm, Phase 1 Chall 2, day 1",5
same,growth rating,"[3]; latex 25 ppm, Phase 1 Chall 2, day 3",5
same,growth rating,"[3]; latex 25 ppm, Phase 1 Chall 2, day 7",3
same,growth rating,"[3]; latex 25 ppm, Phase 1 Chall 3, day 1",5
same,growth rating,"[3]; latex 25 ppm, Phase 1 Chall 3, day 3",5
same,growth rating,"[3]; latex 25 ppm, Phase 1 Chall 3, day 7",5
same,growth rating,"[3]; latex 50 ppm, Phase 1 Chall 1, day 1",5
same,growth rating,"[3]; latex 50 ppm, Phase 1 Chall 1, day 3",2
same,growth rating,"[3]; latex 50 ppm, Phase 1 Chall 1, day 7",2
same,growth rating,"[3]; latex 50 ppm, Phase 1 Chall 2, day 1",5
same,growth rating,"[3]; latex 50 ppm, Phase 1 Chall 2, day 3",4
same,growth rating,"[3]; latex 50 ppm, Phase 1 Chall 2, day 7",0
same,growth rating,"[3]; latex 50 ppm, Phase 1 Chall 3, day 1",5
same,growth rating,"[3]; latex 50 ppm, Phase 1 Chall 3, day 3",4
same,growth rating,"[3]; latex 50 ppm, Phase 1 Chall 3, day 7",0
same,growth rating,"[3]; latex 100 ppm, Phase 1 Chall 1, day 1",5
same,growth rating,"[3]; latex 100 ppm, Phase 1 Chall 1, day 3",3
same,growth rating,"[3]; latex 100 ppm, Phase 1 Chall 1, day 7",0
same,growth rating,"[3]; latex 100 ppm, Phase 1 Chall 2, day 1",4
same,growth rating,"[3]; latex 100 ppm, Phase 1 Chall 2, day 3",4
same,growth rating,"[3]; latex 100 ppm, Phase 1 Chall 2, day 7",0
same,growth rating,"[3]; latex 100 ppm, Phase 1 Chall 3, day 1",4
same,growth rating,"[3]; latex 100 ppm, Phase 1 Chall 3, day 3",4
same,growth rating,"[3]; latex 100 ppm, Phase 1 Chall 3, day 7",0
same,growth rating,"[3]; latex 125 ppm, Phase 1 Chall 1, day 1",5
same,growth rating,"[3]; latex 125 ppm, Phase 1 Chall 1, day 3",3
same,growth rating,"[3]; latex 125 ppm, Phase 1 Chall 1, day 7",0
same,growth rating,"[3]; latex 125 ppm, Phase 1 Chall 2, day 1",4
same,growth rating,"[3]; latex 125 ppm, Phase 1 Chall 2, day 3",4
same,growth rating,"[3]; latex 125 ppm, Phase 1 Chall 2, day 7",0
same,growth rating,"[3]; latex 125 ppm, Phase 1 Chall 3, day 1",4
same,growth rating,"[3]; latex 125 ppm, Phase 1 Chall 3, day 3",4
same,growth rating,"[3]; latex 125 ppm, Phase 1 Chall 3, day 7",0
same,growth rating,"[3]; latex 250 ppm, Phase 1 Chall 1, day 1",5
same,growth rating,"[3]; latex 250 ppm, Phase 1 Chall 1, day 3",3
same,growth rating,"[3]; latex 250 ppm, Phase 1 Chall 1, day 7",0
same,growth rating,"[3]; latex 250 ppm, Phase 1 Chall 2, day 1",4
same,growth rating,"[3]; latex 250 ppm, Phase 1 Chall 2, day 3",4
same,growth rating,"[3]; latex 250 ppm, Phase 1 Chall 2, day 7",0
same,growth rating,"[3]; latex 250 ppm, Phase 1 Chall 3, day 1",4
same,growth rating,"[3]; latex 250 ppm, Phase 1 Chall 3, day 3",4
same,growth rating,"[3]; latex 250 ppm, Phase 1 Chall 3, day 7",0
same,growth rating,"[3]; latex 500 ppm, Phase 1 Chall 1, day 1",5
same,growth rating,"[3]; latex 500 ppm, Phase 1 Chall 1, day 3",3
same,growth rating,"[3]; latex 500 ppm, Phase 1 Chall 1, day 7",0
same,growth rating,"[3]; latex 500 ppm, Phase 1 Chall 2, day 1",4
same,growth rating,"[3]; latex 500 ppm, Phase 1 Chall 2, day 3",4
same,growth rating,"[3]; latex 500 ppm, Phase 1 Chall 2, day 7",0
same,growth rating,"[3]; latex 500 ppm, Phase 1 Chall 3, day 1",3
same,growth rating,"[3]; latex 500 ppm, Phase 1 Chall 3, day 3",2
same,growth rating,"[3]; latex 500 ppm, Phase 1 Chall 3, day 7",0
same,growth rating,"[3]; latex 750 ppm, Phase 1 Chall 1, day 1",4
same,growth rating,"[3]; latex 750 ppm, Phase 1 Chall 1, day 3",2
same,growth rating,"[3]; latex 750 ppm, Phase 1 Chall 1, day 7",0
same,growth rating,"[3]; latex 750 ppm, Phase 1 Chall 2, day 1",3
same,growth rating,"[3]; latex 750 ppm, Phase 1 Chall 2, day 3",3
same,growth rating,"[3]; latex 750 ppm, Phase 1 Chall 2, day 7",0
same,growth rating,"[3]; latex 750 ppm, Phase 1 Chall 3, day 1",2
same,growth rating,"[3]; latex 750 ppm, Phase 1 Chall 3, day 3",0
same,growth rating,"[3]; latex 750 ppm, Phase 1 Chall 3, day 7",0
